Experimental data taken from ChEMBL document CHEMBL1201862, “PubChem BioAssay data set” (2004).
Calls of active or inactive are those of the source.

How the values were obtained:
[1] = anti-trypanosomal activity in BESM host cells – imaging, CA-I/72 strain, bovine embryo skeletal muscle, dry powder, dose response (AID 651885); assay type: functional, cell-based
[2] = antimalarial activity against erythrocytic parasites – NF54 strain, plate reader, dry powder, dose response (AID 651889); assay type: functional, cell-based
[3] = antileishmanial activity on axenic amastigotes – plate reader, dry powder, dose response (AID 651892); assay type: functional, cell-based
[4] = T. cruzi growth inhibition in host cells, dose response, cell-based, plate reader, dry powder, set 2 (AID 652275); assay type: functional
[5] = host muscle cell viability loss – plate reader, dry powder, counter-screen for T. cruzi inhibitor project, dose response (AID 651895); assay type: functional, cell-based
[6] = intracellular Trypanosoma cruzi inhibitors in host cells – cell-based, plate reader, cherry-pick samples, set 3, dose response (AID 651818); assay type: functional;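 note: compounds incubated with infected cells for about four days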
[7] = intracellular Chagas parasite inhibition in myoblasts – Tulahuen strain, L-6 host cells, dry powder, dose response (AID 651890); assay type: functional, cell-based
[8] = African trypanosome bloodstream form growth inhibition – STIB900 strain, plate reader, dry powder, dose response (AID 651894); assay type: functional, cell-based
[9] = Trypanosoma cruzi replication inhibitors in host cells – cell-based, plate reader, dry powder samples, dose response (AID 651845); assay type: functional
[10] = Dd2 malaria parasite growth inhibition potency – SYBR Green, dry powder samples, dose response (AID 1159566); assay type: functional, cell-based;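 note: potency for growth inhibition with lower SYBR green DNA signal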
[11] = growth inhibition of PfATP4-mutant resistant parasites – NITD609-resistant line, SYBR Green, dry powder, dose response (AID 1159571); assay type: functional, cell-based;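 note: parasites synchronized at ring stage by sorbitol before testing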
[12] = P. falciparum Dd2 growth inhibitors, dose response, SYBR Green, cherry-picked samples (AID 1159567); assay type: functional, cell-based
[13] = growth inhibition of yeast DHODH-expressing 3D7 parasites – SYBR Green, dry powder samples, dose response (AID 1159570); assay type: functional, cell-based;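 note: parasite growth measured after 72 hours of compound exposure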
[14] = toxicity to human HepG2 hepatoma cells – cell-based, plate reader, dry powder samples, cytotoxicity control, dose response (AID 1159569); assay type: functional;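 note: inhibitor potency with signal falling toward the positive control level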
Protein Tat = target: T1, Protein Tat (Human immunodeficiency virus type 1 group M subtype B (isolate HXB2)(HIV-1), UniProt P04608); assay type: functional;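 note: tat binding to TAR RNA read out by fluorescence polarization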
T1 sequence (P04608 whole entry): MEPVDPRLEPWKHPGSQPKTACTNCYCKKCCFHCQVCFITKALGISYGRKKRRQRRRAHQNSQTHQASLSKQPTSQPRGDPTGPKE

[15] = M. tuberculosis H37Rv growth inhibitors, H37Rv strain (AID 1626); assay type: functional
[16] = target: Sphingosine 1-phosphate receptor 2 (Homo sapiens, UniProt O95136); assay: Dose Response Cell Based Assay for Agonists of the S1P2 Receptor. [Related pubchem assays: 729, 736, 843 ]; assay type: functional
[17] = target: 5-hydroxytryptamine receptor 1A (Homo sapiens, UniProt P08908); assay type: functional
[18] = target: T2, Short transient receptor potential channel 4 (Mus musculus, UniProt Q9QUQ5); assay: calcium entry via TRPC4 opening agents – cell-based, HEK293 TRPC4/mu-opioid, Fluo-4 calcium, dose response (AID 434937); assay type: functional
T2 sequence (Q9QUQ5 whole entry): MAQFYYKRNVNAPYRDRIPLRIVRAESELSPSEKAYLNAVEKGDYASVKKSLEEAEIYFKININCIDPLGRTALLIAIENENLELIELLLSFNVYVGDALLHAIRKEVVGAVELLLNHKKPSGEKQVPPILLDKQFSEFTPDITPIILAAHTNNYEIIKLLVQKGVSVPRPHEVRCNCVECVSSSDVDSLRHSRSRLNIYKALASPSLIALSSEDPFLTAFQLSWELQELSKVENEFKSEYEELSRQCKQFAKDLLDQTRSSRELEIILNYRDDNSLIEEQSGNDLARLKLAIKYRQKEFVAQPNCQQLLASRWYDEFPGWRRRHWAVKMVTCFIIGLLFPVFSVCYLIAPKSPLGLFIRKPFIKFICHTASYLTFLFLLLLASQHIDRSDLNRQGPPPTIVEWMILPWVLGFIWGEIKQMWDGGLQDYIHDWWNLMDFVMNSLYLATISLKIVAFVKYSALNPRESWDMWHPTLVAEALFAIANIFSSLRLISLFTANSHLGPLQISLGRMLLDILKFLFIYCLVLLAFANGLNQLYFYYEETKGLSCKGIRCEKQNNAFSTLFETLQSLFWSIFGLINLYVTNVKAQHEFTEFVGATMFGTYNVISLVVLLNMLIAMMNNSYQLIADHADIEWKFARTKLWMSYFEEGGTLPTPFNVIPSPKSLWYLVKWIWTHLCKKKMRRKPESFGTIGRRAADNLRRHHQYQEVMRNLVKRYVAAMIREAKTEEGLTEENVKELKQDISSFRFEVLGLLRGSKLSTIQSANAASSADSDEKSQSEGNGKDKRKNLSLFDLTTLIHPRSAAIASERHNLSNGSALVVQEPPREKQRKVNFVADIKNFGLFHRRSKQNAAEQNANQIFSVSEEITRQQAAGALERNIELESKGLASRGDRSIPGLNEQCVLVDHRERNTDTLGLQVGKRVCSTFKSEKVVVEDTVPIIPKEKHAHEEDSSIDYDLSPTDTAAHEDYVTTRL

[19] = microbe, parasite or virus in culture; assay type: functional; conditions: Mycobacterium tuberculosis
[20] = M. tuberculosis growth inhibition, HTS (AID 449762); assay type: functional
[21] = NIH3T3 cell viability loss – ATP luminescence, mouse fibroblasts, counter-screen, dose response (AID 2010); assay type: functional, cell-based;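 note: cells exposed to compound for about 90 hours before reading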
Cytochrome P450 3A4 = Cytochrome P450 3A4 (Homo sapiens, UniProt P08684);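 note: CYP3A4 tested as one member of a cytochrome P450 panel screen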
[22] = Trypanosoma cruzi growth suppression in host cells – NIH3T3 host cells, beta-gal luminescence, confirmation (AID 2044); assay type: functional, cell-based;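 note: intracellular parasites grown in NIH/3T3 mouse fibroblasts as host cells; luminescent beta-galactosidase reporter signal from transgenic T. cruzi replicating inside host cells; inhibitors lower the luminescence signal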
[23] = Reduced DLD-1 viability, concentration-response, CellTiter-Glo luminescence (AID 1117352); assay type: functional
[24] = cytotoxicity toward Colo320 cells – cell-based, CellTiter-Glo luminescence, IC50, dose response (AID 1117334); assay type: functional; conditions: COLO 320
[25] = CellTiter-Glo luminescence survival assay, SW480 colon tumor line, concentration-response curve, half-maximal inhibitory concentration (AID 1117338); assay type: functional
[26] = RKO cell viability reduction, dose response, CellTiter-Glo luminescence (AID 1117322); assay type: functional
[27] = SNU-C1 cell viability reduction, dose response, CellTiter-Glo luminescence (AID 1117323); assay type: functional, cell-based
[28] = cytotoxicity toward HCT116 cells – cell-based, CellTiter-Glo luminescence, IC50, dose response (AID 1117332); assay type: functional; conditions: HCT-116
[29] = HCT116 cell viability decrease, GSK3B pretreatment – CellTiter-Glo, IC50, dose response (AID 1117339); assay type: functional; conditions: HCT-116
[30] = cytotoxicity toward HT-29 cells – cell-based, CellTiter-Glo luminescence, IC50, dose response (AID 1117330); assay type: functional
[31] = target: Mitogen-activated protein kinase 10 (Homo sapiens, UniProt P53779); assay: Dose response biochemical screening assay for inhibitors of c-Jun N-Terminal Kinase 3 (JNK3). [Related pubchem assays: 746 ]
H4 = assay: Luminescence Cell-Based Dose Response HTS to Identify Activators of 5'UTR Stem-Loop Driven Prion Protein mRNA Translation in H4 Neuroglioblastoma Cells. [Related pubchem assays: 1829 (Project Summary), 1814 (Primary HTS)]; assay type: functional; conditions: Homo sapiens

Cytochrome P450 3A4, sequence (P08684 whole entry): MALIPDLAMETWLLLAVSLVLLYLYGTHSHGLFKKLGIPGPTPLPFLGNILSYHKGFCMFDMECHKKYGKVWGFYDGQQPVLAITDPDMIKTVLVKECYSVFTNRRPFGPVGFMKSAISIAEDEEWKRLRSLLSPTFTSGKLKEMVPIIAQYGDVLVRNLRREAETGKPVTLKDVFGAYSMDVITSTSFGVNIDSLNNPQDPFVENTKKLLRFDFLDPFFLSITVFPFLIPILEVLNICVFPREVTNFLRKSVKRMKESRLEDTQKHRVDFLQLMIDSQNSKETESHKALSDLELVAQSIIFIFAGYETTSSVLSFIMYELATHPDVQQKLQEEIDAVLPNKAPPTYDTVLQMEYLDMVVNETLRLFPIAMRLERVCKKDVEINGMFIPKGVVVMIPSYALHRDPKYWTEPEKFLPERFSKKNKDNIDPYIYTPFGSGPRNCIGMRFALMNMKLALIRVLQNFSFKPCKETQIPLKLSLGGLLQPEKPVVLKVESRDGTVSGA
Sphingosine 1-phosphate receptor 2, sequence (O95136 whole entry): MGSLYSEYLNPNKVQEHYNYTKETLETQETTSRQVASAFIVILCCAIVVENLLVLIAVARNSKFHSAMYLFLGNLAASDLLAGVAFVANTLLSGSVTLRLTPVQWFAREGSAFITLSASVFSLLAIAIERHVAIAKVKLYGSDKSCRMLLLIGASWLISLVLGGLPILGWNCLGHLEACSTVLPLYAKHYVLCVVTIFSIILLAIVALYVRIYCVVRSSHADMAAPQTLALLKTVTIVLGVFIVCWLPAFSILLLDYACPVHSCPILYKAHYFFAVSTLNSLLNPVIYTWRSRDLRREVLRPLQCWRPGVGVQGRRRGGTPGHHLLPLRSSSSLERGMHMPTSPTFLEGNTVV
Mitogen-activated protein kinase 10, sequence (P53779 whole entry): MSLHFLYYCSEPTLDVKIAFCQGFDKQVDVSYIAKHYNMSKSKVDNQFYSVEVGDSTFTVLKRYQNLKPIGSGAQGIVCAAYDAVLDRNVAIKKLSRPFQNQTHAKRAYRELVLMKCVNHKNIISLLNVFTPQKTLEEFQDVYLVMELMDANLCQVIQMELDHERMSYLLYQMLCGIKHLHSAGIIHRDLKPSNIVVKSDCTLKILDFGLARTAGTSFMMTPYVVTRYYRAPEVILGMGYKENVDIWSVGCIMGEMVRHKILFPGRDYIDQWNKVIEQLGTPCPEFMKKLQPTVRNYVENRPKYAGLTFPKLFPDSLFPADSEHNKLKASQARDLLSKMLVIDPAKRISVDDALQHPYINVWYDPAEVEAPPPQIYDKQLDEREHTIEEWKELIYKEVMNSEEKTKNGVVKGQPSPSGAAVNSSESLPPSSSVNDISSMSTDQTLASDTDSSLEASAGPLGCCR
5-hydroxytryptamine receptor 1A, sequence (P08908 whole entry): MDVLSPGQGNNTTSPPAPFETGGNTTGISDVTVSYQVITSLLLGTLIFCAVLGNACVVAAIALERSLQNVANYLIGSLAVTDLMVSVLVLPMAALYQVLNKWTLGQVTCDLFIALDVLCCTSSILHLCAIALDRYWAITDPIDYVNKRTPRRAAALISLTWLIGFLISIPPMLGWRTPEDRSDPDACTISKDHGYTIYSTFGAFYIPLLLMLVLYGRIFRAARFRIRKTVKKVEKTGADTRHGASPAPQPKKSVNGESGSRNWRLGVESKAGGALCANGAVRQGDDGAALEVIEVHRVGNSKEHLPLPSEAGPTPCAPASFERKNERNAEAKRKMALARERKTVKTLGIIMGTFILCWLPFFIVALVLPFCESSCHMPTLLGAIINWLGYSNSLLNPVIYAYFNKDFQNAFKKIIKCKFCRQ

## C[C@@H]1CN([C@H](C)CO)C(=O)c2cccc(NC(=O)c3ccncc3)c2O[C@H]1CN(C)Cc1ccc(Oc2ccccc2)cc1
[1]
  IC50: 0.03 µM (active)
[2]
  IC50: 0.82 µM (inactive)
[3]
  IC50: 43.7 µM (inactive)
[4]
  AC50: 0.0017 µM (active)
[5]
  IC50: 13.3 µM (inactive)
[6]
  AC50: 0.08 µM (active)
[7]
  IC50: 0.031 µM (active)
[8]
  IC50: 0.242 µM (active)
[9]
  AC50: 0.00521 µM (active)

## CCC(=O)N1CCC2(CC1)CN(Cc1cc(F)ccc1F)[C@H](CO)c1[nH]c3cc(OC)ccc3c12
[10]
  AC50: 1.96 µM (active)
[11]
  AC50: 1.43 µM (active)
[12]
  AC50: 2.98 µM (active)
[13]
  AC50: 1.83 µM (active)
[14]
  AC50: > 100 µM (inactive)

## COc1ccc(NC(=O)CCCSc2ccccc2)cc1
Protein Tat
  IC50: > 100 µM (active)
[15]
  IC50: > 100 µM (active)

## N#CCN1CCN(CC(=O)Nc2cccc3ccccc23)CC1
[16]
  EC50: > 50 µM (not active)

## c1ccc2sc(C3CCCNC3)nc2c1 (centres undefined)
[17]
  EC50: > 50 µM (not active)
[18]
  EC50: 0.0093 µM (active)

## Cc1ccccc1C1C(C#N)=C2N=C(N)c3c(sc4c3CCCCC4)N2C2=C1C(=O)CC(C)(C)C2 (centres undefined)
[19]
  CC50: 33.1 µM (active)
[20]
  IC50: > 100 µM (active)
[21]
  EC50: > 60 µM (inconclusive)
Cytochrome P450 3A4
  AC50: 1.12 µM (inconclusive)
[22]
  EC50: 1.52 µM (active)

## COC(=O)c1ccccc1C(=O)OC [DIMETHYL PHTHALATE]
[23]
  IC50: > 20 µM (inactive)
[24]
  IC50: > 20 µM (inactive)
[25]
  IC50: > 20 µM (inactive)
[26]
  IC50: > 20 µM (inactive)
[27]
  IC50: > 20 µM (inactive)
[28]
  IC50: > 20 µM (inactive)
[29]
  IC50: > 20 µM (inactive)
[30]
  IC50: > 20 µM (inactive)

## Oc1[nH]c2ccccc2c1/C=N/c1ccc2c(c1)OCO2
[31]
  IC50: > 93.1 µM (not active)
H4
  EC50: 1.25 µM (active)
